Reference: patent publication US20120034608A1, “MICRORNA AS A BIOMARKER OF PANCREATIC ISLET BETA-CELL ENGAGEMENT” (Merck Sharp & Dohme Corp., priority 2009, published 2012)

Columns and labels:
Format in all cases: cell-based, rat
INS-1 832/3 cells [1] = assay: TAQMAN quantification of insulin (Ins1) transcripts in INS-1 832/3 cells; conditions: normalized to β-actin
Excerpt: (§1) We overexpressed the precursors of miR-132 and miR-212 to evaluate their possible contribution to β-cell function. MicroRNA miR-375 was included as a control as it been reported to have an inhibitory effect on GDIS (Poy et al., Nature 432: 226-230 (2004)). Chemically modified Pre-miR™ miRNA precursor molecules and Anti-miR™ miRNA inhibitors were purchased from Ambion (Foster City, Calif.). miRCURY LNA™ microRNA knockdown oligonucleotides were purchased from Exiqon (Woburn, Mass.). The oligonucleotide molecules were delivered to the cells by the Nucleofector Device (Amaxa, Gaithersburg, Md.). In brief, INS-1 cells were trypsinized, centrifuged, and resuspended in 100 μl Nucleofector solution V. Then 100-500 pmole RNA oligonucleotides were transfected to 3-million cells at the concentration of 1-5 μM with the Amaxa Nucleofector Device. Scramble controls from the vendors were used with the same transfection method. After electroporation, the cells were transferred to regular culture medium and then split into replicates in 96-well plates. Insulin secretion assay or LANCE cAMP assay were performed 48 hours post electroporation.
We further measured the insulin content and found it was unchanged by miR-132 or miR-212 overexpression (FIG. 7B). […] Furthermore, we measured insulin transcripts by TAQMAN analysis in cells over-expressing these microRNA molecules. Ins1 TAQMAN probe from Applied Biosystems (Foster City, Calif.) was used to measure insulin transcript levels and normalized to β-actin. […] In this series of experiments, miR-132, miR-212 and miR-375 transcripts were increased by about 1000-fold, 2000-fold, and 8-fold, respectively, as assayed by TAQMAN real-time quantitative RT-PCR.

INS-1 832/3 cells [2] = assay: glucose dependent insulin secretion (GDIS) assay in INS-1 832/3 cells; conditions: for GLP-1 potentiation of GDIS: 16 mM glucose + 10 nM GLP-1, 48 hour post transfection; for GLP-1 potentiation of GDIS / glucose-dependent insulin secretion (GDIS): vs scramble control; for insulin release as percentage of insulin secretion of intracellular insulin content / glucose-dependent insulin secretion (GDIS) / basal insulin secretion at low glucose / insulin release stimulated by KCl: 48 hours post-transfection; for glucose-dependent insulin secretion (GDIS): two hour incubation in KRB; for insulin content: cell lysates, normalized to total protein; for basal insulin secretion at low glucose: 2 mM glucose; for insulin release stimulated by KCl: 30 mM KCl
Excerpt: as §1
(§2) INS-1 cell glucose dependent insulin secretion (GDIS) assay was performed as follows. The GDIS assay was performed with cells grown to near confluency in 96-well plates. Prior to the assay, cells were washed once with PBS and pre-incubated for two hours in freshly prepared Krebs-Ringer Bicarbonate (KRB) medium without glucose. The medium were then replaced with KRB with 2, 8 or 16 mM glucose or along with 10 nM GLP-1. The cells were incubated for another two hours in a CO2 incubator. The media was then removed at the end of incubation, and assayed for insulin levels by Ultra-sensitive Rat Insulin ELISA kit (ALPCO, Salem, N.H.) or insulin immunoassay by Gyrolab workstation (GYROS AB, Uppsala, Sweden). Intracellular insulin was extracted by acid ethanol method for measuring intracellular insulin content. Total protein was measured by Pierce 660 nm Protein Assay from Pierce Biotechnology, Inc. (Rockford, Ill.).

INS-1 832/3 cells [3] = assay: TAQMAN real-time quantitative RT-PCR of miRNA expression in INS-1 832/3 cells; conditions: for increase of the corresponding miRNA transcripts after transfection of precursor: overexpression experiments, TAQMAN real-time quantitative RT-PCR
Experimental: INS-1 832/3 and 832/13 cells were maintained in RPMI 1640 with 10% FBS and 11 mM glucose. For GLP-1 treatment, GLP-1 (7-37) amide (ABCHEM) was added in the media in the presence of 16 mM glucose for 24 hours. Total RNA was extracted with TRIZOL as in Example 1. Rat islet isolation and treatment was as follows. Pancreatic islets of Langerhans were isolated from the pancreas of normal Sprague-Dawley rats (Charles River, Ind.) by collagenase digestion and discontinuous Ficoll gradient separation (15). Islets were cultured for 2 hours in RPMI 1640 medium with 11 mM glucose for recovery from the isolation process. Then 100-200 islets were treated with 50 nM GLP-1 in the media with 11 mM glucose for 24 hours. RNA was extracted with TRIZOL as in Example 1 for quantification of microRNA species.
Fluorogenic TAQMAN detector probes specific for miR-132 (Cat# TM457), miR-212 (Cat# TM515), miR-375 (Cat#TM564), and miR-217 (Cat#1133) were purchased from Applied Biosystems (Foster City, Calif.). The TAQMAN RT-PCR reactions were performed according to the manufacturer's instructions.
Relative miRNA levels for the miRNAs of interest were determined by real-time reverse transcription reaction using the ABI PRISM 7900 Sequence Detection System from Applied Biosystems (Foster City, Calif.) according to the manufacturer's protocol. Briefly, 10 ng of total RNA was mixed with 1 U MultiScribe Reverse Transcriptase, 0.25 U RNase Inhibitor, 3 μL hairpin-looped miRNA-specific RT primer, 1 mM dNTPs and 1× Reverse Transcription Buffer in a total volume of 15 μL. The mixture was incubated at 16° C. for 30 minutes, 42° C. for another 30 minutes, and the reaction was stopped by heating to 85° C. for 5 minutes. Real time PCR reaction was set up in 20 μL volume with 1.33 μL first strand cDNA, 1× TAQMAN MicroRNA Assay Mix and 1× TAQMAN Universal PCR Master Mix. After activation of the AMPLITAQ Gold DNA polymerase at 95° C. for 10 minutes, 40 cycles of two-step PCR were run (95° C. for 15 seconds and 60° C. for 60 seconds). Data were collected and analyzed with SDS v.2.2.2 software (Applied Biosystems). 4.5S RNA or U6 probe (Applied Biosystems) was used as a reference to determine the relative abundance of each miRNA in different samples. TAQMAN RT-PCR was performed according the manufacturer's instructions.
The absolute miRNA levels were determined by reverse transcription reactions in GeneAmp PCR system 9700 followed by amplification using the ABI PRISM 7900HT Sequence Detection System from Applied Biosystems (Foster City, Calif.) through 40 cycles. 4.5S RNA (H) probe (Cat#TM1716) or U6 (Cat#TM1973) was used as reference to determine the relative abundance of each miRNA in different samples. The induction of miR-132 and miR-212 expression by GLP-1 started around 4 hour post-GLP-1 treatment, peaked at 24 hours and was sustained up to 48 hours (FIG. 2).

INS-1 832/13 cells [4] = assay: LANCE cAMP assay in INS-1 832/13 cells; conditions: for cAMP levels: cells overexpressing the precursor vs scramble control
Excerpt: as §1
(§3) For the Lance cAMP assay, INS1 832/3 and 832/13 cells were grown to near confluency in flasks. 9000 cells were incubated with GLP-1 or Exendin-4 in stimulation buffer at concentrations as indicated in figure legends for 1 hour at 37° C. cAMP levels were measured using LANCE cAMP assay kit in 384-well format according to manufacture's protocol (Perkin Elmer, Waltham, Mass.). Counts were calculated to cAMP concentrations using a cAMP standard curve. Each condition was measured in quadruplicate.

INS-1 832/3 cells [5] = assay: LANCE cAMP assay in INS-1 832/3 cells; conditions: one hour stimulation, 5.5 mM glucose
Experimental: as §3

INS-1 832/13 cells [6] = assay: glucose dependent insulin secretion (GDIS) assay in INS-1 832/13 cells; conditions: transfected cells vs scramble control
Excerpt: as §1, §2

[7] = 50 nM GLP-1, 50 nM Exendin-4, 5 μM IBMX, 1 μM Foskolin (FIG. 6A)

Substance	insulin (Ins1) transcripts (INS-1 832/3 cells [1])	GLP-1 potentiation of GDIS (INS-1 832/3 cells [2])	insulin release as percentage of insulin secretion of intracellular insulin content (INS-1 832/3 cells [2])	glucose-dependent insulin secretion (GDIS) (INS-1 832/3 cells [2])	insulin content (INS-1 832/3 cells [2])	increase of the corresponding miRNA transcripts after transfection of precursor (INS-1 832/3 cells [3])	cAMP accumulation (INS-1 832/13 cells [4]; one hour stimulation, 5.5 mM glucose)	miR-132 expression (INS-1 832/3 cells [3]; [7])	miR-212 expression (INS-1 832/3 cells [3]; [7])	miR-375 expression (INS-1 832/3 cells [3]; [7])	cAMP accumulation (INS-1 832/3 cells [5])	basal insulin secretion at low glucose (INS-1 832/3 cells [2])	insulin release stimulated by KCl (INS-1 832/3 cells [2])	cAMP levels (INS-1 832/13 cells [4])	effect of GLP-1 (GLP-1 potentiation) (INS-1 832/13 cells [6])	insulin secretion (GDIS) (INS-1 832/13 cells [6])
miR-375: chemically modified Pre-miR miRNA precursor molecule (Ambion) transfected to overexpress miR-375, control (guide UUUGUUCGUUCGGCUCGCGUGA; chemically modified Pre-miR precursor, pattern not given here)	moderately down-regulated	not	decreased	significantly suppressed	reduction	~8 fold	–	–	–	–	–	–	–	–	–	–
Exendin-4: GLP-1 analog, cAMP raising agent	–	–	–	–	–	–	loss of such response	significantly increased	significantly increased	remained unchanged	dose-dependent accumulation	–	–	–	–	–
miR-132: chemically modified Pre-miR miRNA precursor molecule (Ambion) transfected to overexpress miR-132 (guide UAACAGUCUACAGCCAUGGUCG; chemically modified Pre-miR precursor, pattern not given here)	no effect	robustly increased	significantly increased	significantly enhanced	unchanged	about 1000 fold	–	–	–	–	–	unchanged	significantly enhanced	no changes	augmented	significantly increased
miR-212: chemically modified Pre-miR miRNA precursor molecule (Ambion) transfected to overexpress miR-212 (guide UAACAGUCUCCAGUCACGGCC; chemically modified Pre-miR precursor, pattern not given here)	no effect	enhanced	significantly increased	significantly enhanced	unchanged	~2000 fold	–	–	–	–	–	unchanged	significantly enhanced	no changes	augmented	significantly increased
